ChEMBL document CHEMBL1134081, “MEK (MAPKK) inhibitors. Part 2: structure-activity relationships of 4-anilino-3-cyano-6,7-dialkoxyquinolines” (Bioorg Med Chem Lett, 2001)
pIC50: −log10 of the molar value.

Legend:
[1] = target: T1, Dual specificity mitogen-activated protein kinase kinase 1 (Homo sapiens, UniProt Q02750); assay: Inhibitory activity against Dual specificity mitogen-activated protein kinase kinase using direct MEK assay (which by-passes the need for activated Raf by using an activated GST-MEK)
T1 sequence (Q02750 whole entry): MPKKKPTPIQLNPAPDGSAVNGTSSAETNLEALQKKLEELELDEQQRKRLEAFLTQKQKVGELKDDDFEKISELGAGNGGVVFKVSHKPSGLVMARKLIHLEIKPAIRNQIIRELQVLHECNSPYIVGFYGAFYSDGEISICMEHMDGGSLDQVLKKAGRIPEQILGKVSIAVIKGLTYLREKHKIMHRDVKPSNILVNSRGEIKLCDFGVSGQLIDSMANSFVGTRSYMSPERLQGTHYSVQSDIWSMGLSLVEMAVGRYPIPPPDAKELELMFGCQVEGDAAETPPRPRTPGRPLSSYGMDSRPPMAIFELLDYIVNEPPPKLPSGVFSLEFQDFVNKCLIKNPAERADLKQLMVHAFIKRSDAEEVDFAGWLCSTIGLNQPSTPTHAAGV

[2] = target: T1, Dual specificity mitogen-activated protein kinase kinase 1; assay: Inhibitory activity against Dual specificity mitogen-activated protein kinase kinase using coupled MEK assay (which uses activated Raf to activate an inactivate GST-MEK)
LoVo = assay: Inhibition of LoVo human colon tumor cell proliferation
[3] = target: T1, Dual specificity mitogen-activated protein kinase kinase 1; assay: Inhibition of Dual specificity mitogen-activated protein kinase kinase in direct activated MEK assay
[4] = target: T1, Dual specificity mitogen-activated protein kinase kinase 1; assay: Inhibition of Dual specificity mitogen-activated protein kinase kinase in coupled activated Raf/MEK assay

Structure (SMILES): COc1ccc(Nc2c(C#N)cnc3cc(OC)c(OC)cc23)cc1
- pIC50 [1]: 5.52
- pIC50 [2]: 6.28

Structure (SMILES): COc1cc2c(Nc3ccc(SC4CCCCC4)cc3)c(C#N)cnc2cc1OCCCN1CCOCC1
- pIC50 [1]: 6.52
- pIC50 [2]: 7.68

Structure (SMILES): COc1cc2c(Nc3ccc(CC4CCCCC4)cc3)c(C#N)cnc2cc1OCCCN1CCOCC1
- pIC50 [1]: 5.48
- pIC50 [2]: 6.70

Structure (SMILES): COc1cc2ncc(C#N)c(Nc3ccccc3Oc3ccccc3)c2cc1OC
- pIC50 [1]: < 5.00
- pIC50 [2]: < 5.00

Structure (SMILES): COc1cc2c(Nc3ccc(Cc4cccs4)cc3)c(C#N)cnc2cc1OCCCN1CCOCC1
- pIC50 [1]: 7.70
- pIC50 [2]: 8.36

Structure (SMILES): COc1cc2c(Nc3ccc(Sc4ccccc4)cc3)c(C#N)cnc2cc1OCCCN1CCOCC1
- pIC50 [1]: 8.24
- pIC50 (LoVo): 6.66
- pIC50 [2]: 8.96

Structure (SMILES): COc1cc2ncc(C#N)c(Nc3ccc(O)cc3)c2cc1OC
- pIC50 [1]: 5.66
- pIC50 [2]: 6.26

Structure (SMILES): COc1cc2c(Nc3ccc(Cc4ccsc4)cc3)c(C#N)cnc2cc1OCCCN1CCOCC1
- pIC50 [1]: 7.64
- pIC50 [2]: 8.38

Structure (SMILES): COc1ccc(Nc2c(C#N)cnc3cc(OCCCN4CCOCC4)c(OC)cc23)cc1
- pIC50 [1]: 6.60
- pIC50 [2]: 7.00

Structure (SMILES): COc1cc2c(Nc3ccc(CCc4ccccc4)cc3)c(C#N)cnc2cc1OCCCN1CCOCC1
- pIC50 [3]: 6.82
- pIC50 [4]: 7.48

Structure (SMILES): COc1cc2ncc(C#N)c(Nc3ccc(SC)cc3)c2cc1OC
- pIC50 [1]: 5.89
- pIC50 [2]: 6.55

Structure (SMILES): COc1cc2c(Nc3ccc(Cc4ccccc4)cc3)c(C#N)cnc2cc1OCCCN1CCOCC1
- pIC50 [1]: 7.85
- pIC50 (LoVo): 6.68
- pIC50 [2]: 8.57

Structure (SMILES): COc1cc2c(Nc3ccc(Cc4ccoc4)cc3)c(C#N)cnc2cc1OCCCN1CCOCC1
- pIC50 [1]: 7.37
- pIC50 [2]: 7.85

Structure (SMILES): COc1cc2c(Nc3ccc(Cc4ccco4)cc3)c(C#N)cnc2cc1OCCCN1CCOCC1
- pIC50 [1]: 7.18
- pIC50 [2]: 7.70

Structure (SMILES): COc1cc2c(Nc3ccc(OC4CCCCC4)cc3)c(C#N)cnc2cc1OCCCN1CCOCC1
- pIC50 [1]: 6.49
- pIC50 [2]: 6.96

Structure (SMILES): COc1cc2ncc(C#N)c(Nc3ccc(Oc4ccc(Cl)cc4)cc3)c2cc1OC
- pIC50 [1]: 6.68
- pIC50 [2]: 7.37

Structure (SMILES): COc1cc2c(Nc3ccc(Oc4ccncc4)cc3)c(C#N)cnc2cc1OCCCN1CCOCC1
- pIC50 [1]: 7.09
- pIC50 [2]: 7.59

Structure (SMILES): COc1cc2ncc(C#N)c(Nc3ccc(Nc4ccccc4)cc3)c2cc1OC
- pIC50 [1]: 5.92
- pIC50 [2]: 6.80

Structure (SMILES): COc1cc2c(Nc3ccc(Oc4ccccc4)cc3)c(C#N)cnc2cc1OCCCN1CCOCC1
- pIC50 [2]: 8.62
